# Source: patent publication US20100279995A1, “Novel Ansamycin Derivatives” (priority 2005, published 2010)
# How the values were obtained:
# [1] = Cleavage assay in whole defibrinated rabbit blood; format: in vitro ADME
# Protocol: (§1) Cleavage Assays for Pro-Drugs of 18,21-dihydromacbecin
# (§2) Assays to determine the rate of cleavage of the pro-drugs into their parent compounds were performed as described herein. These were carried out in plasma, blood or buffer. Mixed mouse, human or mixed rat plasma containing EDTA or heparin as an anti-coagulant was used or whole defibrinated rabbit blood (mouse and rat plasma and rabbit blood were obtained from Harlan-Sera Labs, human plasma was obtained from Biopredic International).
# If using whole blood such as defibrinated whole rabbit blood the following protocol was used: The blood was thawed at 37° C. in a water bath. Blood was dispensed into individual 20 mL tubes for each test compound allowing 0.5 mL for each time point to be analysed. A tube containing blood was also included as a control. These tubes were incubated for 15 minutes at 37° C.
# Each test compound was reconstituted in DMSO or other appropriate solvent. The blood was removed from the water bath and the compound was added to give a final concentration of 0.001-0.010 mg/mL keeping the final concentration of solvent below 5%. In the case of the control, an equivalent volume of DMSO or other solvent was added. Immediately after the addition of compound a 0.4 mL sample was taken from the tube, transferred to a 2 mL microfuge tube. The plasma was promptly returned to the 37° C. water bath. 0.4 mL samples were taken at regular time points (e.g. after 30 min and then hourly) and were immediately frozen at −80° C. To each 0.4 mL sample in its 2 mL microfuge tube was added 1.5 mL of 0.1 M potassium dihydrogen phosphate, this was inverted to mix. A stable internal standard (IS) in acetonitrile was added at 0.002 mg/mL. This was agitated for 5 min on an IKA shaker at 1500 rpm. Centrifugation at 5000 rpm for 5 min lead to a dense pellet made up of red blood cells and precipitated protein, and a pink/red supernatant. An Oasis HLB (333/60 mg) cartridge was equilibrated with 2 mL of methanol followed by 2 mL of water. […]
# The HPLC conditions were: 10% B for 1 min followed by a linear gradient to 100% B over a period of 7 min and an isocratic period of 2 min at 100% B. The analytes were detected by UV absorbance at 255 nm and mass spectrometry using a Bruker Daltonics Esquire 3000+ mass spectrometer coupled to the HPLC. The analytes were quantified based on the extracted ion chromatogram. To ensure a reliable quantification, the linear response of the mass spectrometer was checked for the concentration range of interest.
# Each compound was assessed for cleavage to 18,21-dihydromacbecin as follows. […] The samples were applied to a cartridge described above and analysed immediately using Analysis Method C.
# [2] = Cleavage assay in phosphate buffer; format: physicochemical; settings: cleavage to 18,21-dihydromacbecin
# Protocol: as §1, §2
# The stability of the test compounds in phosphate-buffered saline (PBS) of specific pH over the course of each experiment was also analysed using the same methodology.
# After the final time point was sampled, the samples were extracted as follows. For each time point sample an Oasis MCX (3 cc/60 mg) or Oasis HLB (333/60 mg) cartridge was conditioned and equilibrated with 2 mL methanol followed by 2 mL water. 1.5 mL water and an internal standard (IS) at 0.002 mg/mL were added to each 0.4 mL plasma sample. This was loaded to the cartridge. The cartridge was washed with 2 mL water and the analytes were eluted in 2 ml MeOH. This extract was analysed without further treatment by LC/MS using the conditions described below.
# The cleavage of compounds 1-3 was also measured in phosphate buffer as described in the General Methods—Cleavage Assay above at pH 7.2 and pH 7.4 and T1/2 values calculated as indicated in Table 5 below.
# [3] = test system: PRXF DU-145 xenografts; test: In vivo evaluation of antitumor efficacy in PRXF DU-145 xenografts; parameters: species or system nude mice; settings: 60 mg/kg/d i.p. on Days 0-4, 7-11, 14-18, 21, 24, 25, 28 and 29; recorded on day 31; p<0.001 vs vehicle control
# [4] = test system: Reverse transcriptase; settings: Ono et al., 1982; cited from earlier work
# [5] = target: terminal deoxynucleotidyl transferase (Homo sapiens, UniProt P04053); settings: Ono et al., 1982; cited from earlier work
# [6] = test system: MEXF 394NL; test: Monolayer proliferation assay (modified propidium iodide); format: cell-based, human; settings: 4 days exposure
# From the text: (§3) In vitro evaluation of compounds for anticancer activity in a panel of 12 human tumour cell lines in a monolayer proliferation assay may be carried out at the Oncotest Testing Facility, Institute for Experimental Oncology, Oncotest GmbH, Freiburg.
# (§4) The Oncotest cell lines were established from human tumor xenografts as described by Roth et al., (1999). The origin of the donor xenografts is described by Fiebig et al., (1999). Other cell lines were either obtained from the NCI (H460, SF-268, OVCAR-3, DU145, MDA-MB-231, MDA-MB-468) or purchased from DSMZ, Braunschweig, Germany (LNCAP).
# (§5) All cell lines, unless otherwise specified, were grown at 37° C. in a humidified atmosphere (95% air, 5% CO2) in a ‘ready-mix’ medium containing RPMI 1640 medium, 10% fetal calf serum, and 0.1 mg/mL gentamicin (PAA, Cölbe, Germany).
# (§6) A modified propidium iodide assay was used to assess the effects of the test compound(s) on the growth of twelve human tumour cell lines (Dengler et al., (1995)).
# (§7) Briefly, cells were harvested from exponential phase cultures by trypsinization, counted and plated in 96 well flat-bottomed microtitre plates at a cell density dependent on the cell line (5-10.000 viable cells/well). After 24 h recovery to allow the cells to resume exponential growth, 0.010 mL of culture medium (6 control wells per plate) or culture medium containing macbecin was added to the wells. Each concentration was plated in triplicate. Compounds were applied in two concentrations (0.001 mM and 0.01 mM). Following 4 days of continuous exposure, cell culture medium with or without test compound is replaced by 0.2 mL of an aqueous propidium iodide (PI) solution (7 mg/L). To measure the proportion of living cells, cells are permeabilized by freezing the plates. After thawing the plates, fluorescence was measured using the Cytofluor 4000 microplate reader (excitation 530 nm, emission 620 nm), giving a direct relationship to the total number of viable cells.
# (§8) Growth inhibition is expressed as treated/control×100 (% T/C).
# (§9) In vitro evaluation of macbecin for anticancer activity in a panel of 12 human tumor cell lines in a monolayer proliferation assay was carried out as described in the general methods using a modified propidium iodide assay.
# [7] = test system: GXF 251L; test: as above; format: cell-based, human; settings: 4 days exposure
# From the text: as §3, §4, §5, §6, §7, §8, §9
# [8] = test system: MDA-MB-231; test: as above; format: cell-based, human; settings: MDA231, 4 days exposure
# From the text: as §3, §4, §5, §6, §7, §8, §9
# [9] = test system: OVCAR-3; test: as above; format: cell-based, human; settings: OVCAR3, 4 days exposure
# From the text: as §3, §4, §5, §6, §7, §8, §9
# [10] = test system: LNCAP; test: as above; format: cell-based, human; settings: 4 days exposure
# From the text: as §3, §4, §5, §6, §7, §8, §9
# [11] = test system: UXF 1138L; test: as above; format: cell-based, human; settings: 4 days exposure
# From the text: as §3, §4, §5, §6, §7, §8, §9
# [12] = test system: NCI-H460; test: as above; format: cell-based, human; settings: 4 days exposure
# From the text: as §3, §4, §5, §6, §7, §8, §9
# [13] = test system: A498; test: as above; format: cell-based, human; settings: 4 days exposure
# From the text: as §3, §4, §5, §6, §7, §8, §9
# [14] = test system: DU145; test: as above; format: cell-based, human; settings: 4 days exposure
# From the text: as §3, §4, §5, §6, §7, §8, §9
# [15] = test system: MCF-7; test: as above; format: cell-based, human; settings: MCF7, 4 days exposure
# From the text: as §3, §4, §5, §6, §7, §8, §9
# [16] = test system: MDA-MB-468; test: as above; format: cell-based, human; settings: MDA468, 4 days exposure
# From the text: as §3, §4, §5, §6, §7, §8, §9
# [17] = test system: SF-268; test: as above; format: cell-based, human; settings: SF268, 4 days exposure
# From the text: as §3, §4, §5, §6, §7, §8, §9
# [18] = Rabbit blood pH 7.3 (37° C.) Run 1
# [19] = Phosphate Buffer pH 7.2 (37° C.)
# [20] = Phosphate Buffer pH 7.4 (37° C.)
# Chain of terminal deoxynucleotidyl transferase (P04053 whole entry, species assumed): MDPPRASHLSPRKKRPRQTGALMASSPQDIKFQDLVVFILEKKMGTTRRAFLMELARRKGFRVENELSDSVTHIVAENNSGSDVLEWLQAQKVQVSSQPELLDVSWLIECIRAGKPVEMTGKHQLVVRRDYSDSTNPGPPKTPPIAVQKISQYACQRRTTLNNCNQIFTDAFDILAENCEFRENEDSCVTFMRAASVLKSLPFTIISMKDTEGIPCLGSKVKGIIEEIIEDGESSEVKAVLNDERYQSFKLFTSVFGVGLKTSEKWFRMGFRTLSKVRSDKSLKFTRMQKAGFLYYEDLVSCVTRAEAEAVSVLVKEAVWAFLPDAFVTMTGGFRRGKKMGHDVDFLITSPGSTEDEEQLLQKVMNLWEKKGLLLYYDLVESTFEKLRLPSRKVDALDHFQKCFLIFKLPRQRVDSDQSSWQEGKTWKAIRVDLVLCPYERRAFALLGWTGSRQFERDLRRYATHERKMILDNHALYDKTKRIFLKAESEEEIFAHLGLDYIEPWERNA
compound,measurement,setting,value
"18-O—(N,N′-diethylethylenediamine-N′-carbamoyl)-18,21-dihydromacbecin Hydrochloride Salt [Compound 3]",t1/2,[1]; [18],160 min
same,t1/2,[2]; [19],276 min
same,t1/2,[2]; [20],160 min
"18-O—(N,N′-dimethylethylenediamine-N′-carbamoyl)-18,21-dihydromacbecin Hydrochloride Salt [Compound 1]",t1/2,[1]; [18],45 min
same,t1/2,[1]; Rabbit blood pH 7.3 (37° C.) Run 2,49 min
same,minimum T/C value,[3],24.3%
same,t1/2,[2]; [19],64 min
same,t1/2,[2]; [20],49 min
"CNCCNC(=O)Oc1cc2c(O)c(c1)C(OC)C(C)CC(OC)C(OC)C(C)C=C(C)C(OC(N)=O)C(C)C=CC=C(C)C(=O)N2.Cl (stereo not shown) [Compound 2, 18-O—(N-methylethylenediamine-N′-carbamoyl)-18,21-dihydromacbecin Hydrochloride Salt]",t1/2,[1]; [18],153 min
same,t1/2,[2]; [19],627 min
same,t1/2,[2]; [20],127 min
CO[C@H]1[C@@H](OC)C[C@H](C)[C@@H](OC)C2=CC(=O)C=C(NC(=O)/C(C)=C/C=C\[C@@H](C)[C@@H](OC(N)=O)/C(C)=C/[C@@H]1C)C2=O [macbecin],Reverse transcriptase activity inhibition,[4],not inhibited
same,terminal deoxynucleotidyl transferase activity inhibition,[5],not inhibited
same,Test/Control (%) at drug concentration,[6]; 1 × 10−5 M,17%
same,Test/Control (%) at drug concentration,[6]; 1 × 10−6 M,21%
same,Test/Control (%) at drug concentration,[7]; 1 × 10−5 M,37%
same,Test/Control (%) at drug concentration,[7]; 1 × 10−6 M,61%
same,Test/Control (%) at drug concentration,[8]; 1 × 10−5 M,34%
same,Test/Control (%) at drug concentration,[8]; 1 × 10−6 M,88%
same,Test/Control (%) at drug concentration,[9]; 1 × 10−5 M,37.5%
same,Test/Control (%) at drug concentration,[9]; 1 × 10−6 M,71%
same,Test/Control (%) at drug concentration,[10]; 1 × 10−5 M,27.5%
same,Test/Control (%) at drug concentration,[10]; 1 × 10−6 M,43.5%
same,Test/Control (%) at drug concentration,[11]; 1 × 10−5 M,19%
same,Test/Control (%) at drug concentration,[11]; 1 × 10−6 M,75.5%
same,Test/Control (%) at drug concentration,[12]; 1 × 10−5 M,21.5%
same,Test/Control (%) at drug concentration,[12]; 1 × 10−6 M,110%
same,Test/Control (%) at drug concentration,[13]; 1 × 10−5 M,82%
same,Test/Control (%) at drug concentration,[13]; 1 × 10−6 M,107.5%
same,Test/Control (%) at drug concentration,[14]; 1 × 10−5 M,14.5%
same,Test/Control (%) at drug concentration,[14]; 1 × 10−6 M,42%
same,Test/Control (%) at drug concentration,[15]; 1 × 10−5 M,12%
same,Test/Control (%) at drug concentration,[15]; 1 × 10−6 M,35.5%
same,Test/Control (%) at drug concentration,[16]; 1 × 10−5 M,4%
same,Test/Control (%) at drug concentration,[16]; 1 × 10−6 M,14.5%
same,Test/Control (%) at drug concentration,[17]; 1 × 10−5 M,20.5%
same,Test/Control (%) at drug concentration,[17]; 1 × 10−6 M,95.5%
